Assay results from patent US20110251158A1, “FULLERENE THERAPIES FOR INFLAMMATION AND INHIBITION OF BUILD-UP OF ARTERIAL PLAQUE” (Luna Innovations Incorporated, priority 2008, published 2011).

Tests used:
[1] = tested on: PI3-kinase phosphorylation; experiment: Western blotting of FcεRI-activated phospho-signaling in MC: PI3-kinase; type: cell-based, human; conditions: 10 μg/mL overnight
Description: Cell lysate preparation and Western blotting were performed using a protocol optimized for extracting phospho-proteins from human MC. Tkaczyk, C., Metcalfe, D. D., and Gilfillan, A. M. J. Immunol. Methods 268, 239-243 (2002). Following activation, cells were lysed directly in boiling denaturing sample buffer consisting of tris-buffered saline with triton-X-100 (0.5%) and protease and phosphatase inhibitors. The cell suspension was then passed through a 20-gauge needle, boiled, and centrifuged to remove cell debris. Proteins were separated on 8% or 10% NuPage Tris-Bis gels using Licor running buffer. Western blotting was performed using Licor blocking buffer and IR800 and IR700 anti-rabbit F(ab)2 secondary Abs (1:1000). Primary Abs were from Cell Signaling Technologies or Santa Cruz unless otherwise noted. Band intensities were captured using the Odyssey Imaging System and bands quantified by measuring the number of pixels in each band using a box drawn for the same area of measurement for each separate blot. The band intensity was then normalized for loading by dividing the number of pixels in each band with the housekeeping band intensity (β-actin) performed on the same blot.
MC were pretreated with Inos or TGA (10 μg/mL) overnight at 37° C./6% CO2. The next day washed cells were activated with or without anti-FcεRI (1 μg/mL) for the indicated times and lysed using protocols described above. Two separate 10% Tris-Glycine gels were used for sodium dodecyl sulfate polyacrylamide gel electrophoresis (SDS-PAGE) and Western blotting performed with the indicated phosphorylation-specific (i.e., phosph-Lyn) antibodies. To ensure equal loading, an antiactin antibody was used in parallel. The intensity of each band was detected and quantified using an Odyssey imaging system. Band intensities are presented as a ratio compared to antiactin band intensities probed in the same lane and presented for each time point in the colored graphs on the right side. Results are representative of three separate experiments. […]

[2] = tested on: inflammatory arthritis; experiment: Murine arthritis model (arthritogenic serum): clinical indices and ankle swelling; type: in vivo, mice (C57/B6)
Description: To induce disease, C57/B6 (5 mice/cage/group) mice were injected intraperitoneally (IP) on Days 1 and 3 with 100 μl of arthritogenic serum. […] As a control 100 μl of PBS without serum was injected in the control group. Swelling in each ankle was measured along with the clinical indices as described (Lee, D M, Science 2002, Sep. 6; 297(5587):1689-92). Measurements were performed every second day by personnel blinded to the identity of the injections. After 14 days mice were sacrificed and ankle sections removed for histology and serum obtained for cytokine analysis. Error bars, SEM. In FIG. 5A, clinical index was given as the sum of observed inflammation (per paw): 0=no evidence of inflammation; 1=subtle inflammation (metatarsal phalanges joints, individual phalanx, or localized edema); 2=easily identified swelling but localized to either dorsal or ventral surface of paw; and 3=swelling on all aspects of paw. Maximum score=12. In FIG. 5B, the sum of the measurement in ankle swelling at each day was given. The * indicates significant differences observed on that day in fullerene compared to non-fullerene-treated mice. Prior to injection, 5 was incorporated into liposomes with egg phosphatidylcholine (PC) at a ratio of 1:2. 7 was dissolved in PBS buffer at pH 7.4. […]

[3] = tested on: Mast cells (MC); experiment: Anti-FcεRI-induced GM-CSF cytokine production in MC; type: cell-based, human; conditions: maximum inhibition set to 100%
Description: MC are a component of the inflammatory response. As such, cultures of human Mast Cells can be used for screening the activity of different fullerene derivatives to evaluate their potential activity in animal models. In this example, human skin tissue was received from the Cooperative Human Tissue Network and MC purified and cultured as described in Kepley, C. L. Int. Arch. Allergy Immunol. 138, 29-39 (2005). The MC were cultured in media containing stem cell factor which is removed from the culture 24 hours prior to experimentation.
For activation, MC were suspended in fresh medium (without cytokines) and incubated for 16 hours with or without fullerene derivatives at 37° C. in a 6% CO2 incubator. […] The next morning, cells were washed and stimulated with anti-FcεRI Abs (3B4; 1 μg/ml) for 30 minutes (β-hexosaminidase) or overnight (GM-CSF) at 37° C. in a 6% CO2 incubator and mediator release measured as described in Zhao, W., Kepley, C. […]
Cells were cultured with fixed concentrations of a fullerene derivative (10 μg/ml; FIGS. 8A and 9A) or different concentrations (FIGS. 8B and 9B) for 16 h, washed and stimulated for 30 min (FIGS. 8A and 8B) or 24 hours (FIGS. 9A and 9B) with optimal concentrations of αanti-FcεRI Abs (3B4; 1 μg/ml). Cells were centrifuged and β-hexosaminidase release and GMCSF levels determined by ELISA.

[4] = tested on: Peripheral blood basophils (PBB); experiment: Anti-IgE-induced IL-13 secretion from PBB (ELISA); type: cell-based, human; conditions: for Mean % Inhibition of IL-13 Secretion: 15 ng/ml anti-IgE
Description: PBB were obtained from two sources: donors recruited under an IRB-approved protocol after informed consent or from leukopheresis packs obtained from the Johns Hopkins Hemapheresis Center. PBB were purified to ≧99% purity as described in Vonakis, B. M., Gibbons S Jr, Sora, R., Langdon, J. M., and MacDonald, S. M. J. Allergy Clin. Immunol. 108, 822-831 (2001), and Miura, K., Saini, S. S., Gauvreau, G., and MacGlashan, D. W., Jr. J. Immunol. 167, 2282-2291 (2001). Purified PBB were incubated overnight (20 hours) with a fullerene derivative (5 μg/ml) or vehicle control and a minimal (non-stimulatory) concentration of IL-3 (2 pg/ml) to prevent apoptosis. The next day, cells were washed and aliquoted for the histamine release assay by treatment with 0.1 mg/ml of goat polyclonal anti-IgE, buffer alone (spontaneous release) or perchloric acid (total histamine determination). Histamine was quantified in cell free supernatants using automated fluorimetry in duplicate. In a second set of experiments the two fullerene derivatives (at 5 μg/ml) were incubated with PBB for 20 hours, washed cells stimulated with 15 ng/ml anti-IgE for 18 hours in duplicate and supernatants collected for quantification of IL-13 by in-house ELISA. The optimal doses of anti-IgE are chosen for activation of PBB.

Substance: C70-tetraglycolic acid [TGA]
- reduced PI3-kinase phosphorylation ([1]; 3 minutes): 15%
- reduced PI3-kinase phosphorylation ([1]; 5 minutes): 35%
- reduced PI3-kinase phosphorylation ([1]; 10 minutes): 50%
- Inflammation ([2]; 200 ng/100 μl IP, days 6 to 12, p<0.03): significantly inhibited
- Inflammation ([2]; 2000 ng/100 μl IP, days 10 to 14, p<0.02): significantly inhibited
- IC50 (GMCSF-cytokine production) [3]: 3.3 (±0.6) μg/ml
- FD + anti-IgE (mean ± SEM, ng/ml), IL-13 ([4]; 5 μg/ml FD, 20 hours, 15 ng/ml anti-IgE 18 hours): 79.3 ± 20.9 ng/mL
- Mean % Inhibition of IL-13 Secretion ([4]; 5 μg/ml FD, listed as C70-TGA): 52.4%
- Mean % Inhibition of IL-13 Secretion ([4]; 5 μg/ml FD, listed as C70-tetraglucolate): significant inhibition
- IC50 (IL-13-cytokine production) ([4]; PBB, maximum inhibition set to 100%): 10.6 µg/mL
- maximal inhibition of anti-IgE stimulated IL-13 secretion ([4]; detected at 0.5 μg/ml, mean, n=2): 37.4%
